Data published in the supplement of paper PMC11061612.

What was measured:
Assay in all cases: Bliss excess, mean over the matrix (fraction); higher = more synergy
[1] = system: JURL-MK1 (Chronic Myelogenous Leukemia)
Outline: (§1)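 Cell lines in DMEM/F12 or RPMI with 10% FBS were plated in 1536-well plates, held 24 hours at 37°C, 5% CO2, then given two-drug dose matrices for 72 hours (DMSO typically 0.2%). Viability was read by CellTiter-Glo 2.0 luminescence and scaled as inhibition from 0 (vehicle wells) to 1 (blank wells). Combination Emax is the second-highest inhibition in the matrix; Bliss excess is observed combination effect minus expected EA + EB − EA·EB, EA and EB being single-agent effects.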

[2] = system: C32 (Melanoma)
Outline: as §1

[3] = system: BC-1 (B-Cell Non-Hodgkin's Lymphoma)
Outline: as §1

[4] = system: ATN-1 (T-Lymphoblastic Leukemia)
Outline: as §1

[5] = system: L-363 (Plasma Cell Myeloma)
Outline: as §1

[6] = system: IGROV-1 (Ovarian Carcinoma)
Outline: as §1

[7] = system: OVKATE (Ovarian Carcinoma)
Outline: as §1

[8] = system: C2BBe1 (Colorectal Carcinoma)
Outline: as §1

[9] = system: JJN-3 (Plasma Cell Myeloma)
Outline: as §1

[10] = system: SUP-HD1 (Hodgkin's Lymphoma)
Outline: as §1

[11] = system: NCI-H2009 (Lung Adenocarcinoma)
Outline: as §1

[12] = system: SK-N-DZ (Neuroblastoma)
Outline: as §1

[13] = system: HT-144 (Melanoma)
Outline: as §1

[14] = system: SNU-1 (Gastric Carcinoma)
Outline: as §1

[15] = system: NTERA-2-cl-D1 (Other Solid Carcinomas)
Outline: as §1

[16] = system: HT-3 (Cervical Carcinoma)
Outline: as §1

[17] = system: RS4-11 (B-Lymphoblastic Leukemia)
Outline: as §1

[18] = system: SW1463 (Colorectal Carcinoma)
Outline: as §1

[19] = system: GRANTA-519 (B-Cell Non-Hodgkin's Lymphoma)
Outline: as §1

[20] = system: NCI-H1648 (Lung Adenocarcinoma)
Outline: as §1

COc1cccc(OCCCN)c1-c1cc(Nc2cnc(C#N)cn2)n[nH]1 [Prexasertib] + O=C(c1cc(Cc2n[nH]c(=O)c3ccccc23)ccc1F)N1CCN(C(=O)C2CC2)CC1 [Olaparib] (first compound max 1 µM, 7x7, partner max 10 µM)
Bliss excess [1]: -0.0042
Bliss excess [2]: -0.0459
Bliss excess [3]: -0.0108
Bliss excess [4]: -0.0078
Bliss excess [5]: -0.0157
Bliss excess [6]: -0.111
Bliss excess [7]: -0.062
Bliss excess [8]: -0.0704
Bliss excess [9]: 0.0165
Bliss excess [10]: -0.091
Bliss excess [11]: -0.0185
Bliss excess [12]: -0.0511
Bliss excess [13]: -0.0264
Bliss excess [14]: -0.0533
Bliss excess [15]: 0.0401
Bliss excess [16]: 0.0276
Bliss excess [17]: -0.0025
Bliss excess [18]: -0.0549
Bliss excess [19]: -0.105
Bliss excess [20]: 0.0051

CN(CCO)CC[C@H](CSc1ccccc1)Nc1ccc(S(=O)(=O)NC(=O)c2ccc(N3CCC([C@@H](O)c4ccccc4-c4ccc(Cl)cc4)CC3)cc2)cc1S(=O)(=O)C(F)(F)F [AZD4320] + CN(C)CCCOc1ccc(-c2ccc3ncc4c(c3c2)n(C2CCOCC2)c(=O)n4C)cn1 [AZD0156] (first compound max 1 µM, 7x7, partner max 1 µM)
Bliss excess [1]: -0.0368
Bliss excess [2]: -0.0182
Bliss excess [3]: -0.0228
Bliss excess [4]: -0.0231
Bliss excess [5]: -0.0005
Bliss excess [6]: -0.0848
Bliss excess [7]: -0.104
Bliss excess [8]: -0.0443
Bliss excess [9]: 0.0142
Bliss excess [10]: -0.0754
Bliss excess [11]: -0.0424
Bliss excess [12]: 0.0238
Bliss excess [13]: -0.0032
Bliss excess [14]: 0.0192
Bliss excess [15]: -0.0692
Bliss excess [16]: -0.0251
Bliss excess [17]: -0.0209
Bliss excess [18]: -0.06
Bliss excess [19]: 0.007
Bliss excess [20]: -0.0326

CN(C)CCCOc1ccc(-c2ccc3ncc4c(c3c2)n(C2CCOCC2)c(=O)n4C)cn1 [AZD0156] + O=C(c1cc(Cc2n[nH]c(=O)c3ccccc23)ccc1F)N1CCN(C(=O)C2CC2)CC1 [Olaparib] (first compound max 3 µM, partner max 3 µM)
Bliss excess [1]: 0.157
Bliss excess [2]: -0.035
Bliss excess [3]: 0.0648
Bliss excess [4]: 0.011
Bliss excess [5]: -0.0073
Bliss excess [6]: 0.0623
Bliss excess [7]: 0.0008
Bliss excess [8]: -0.0428
Bliss excess [9]: 0.0264
Bliss excess [10]: -0.039
Bliss excess [11]: 0.16
Bliss excess [12]: -0.0533
Bliss excess [13]: 0.0767
Bliss excess [14]: 0.032
Bliss excess [15]: 0.0068
Bliss excess [16]: 0.0386
Bliss excess [17]: 0.104
Bliss excess [18]: -0.035
Bliss excess [19]: 0.0079
Bliss excess [20]: 0.0271

Cn1cnc2c(F)c(Nc3ccc(Br)cc3Cl)c(C(=O)NOCCO)cc21 [Selumetinib] + CCN(CCO)CCCOc1ccc2c(Nc3cc(CC(=O)Nc4cccc(F)c4)[nH]n3)ncnc2c1 [AZD2811] (first compound max 10 µM, 7x7, partner max 1 µM)
Bliss excess [1]: 0.0645
Bliss excess [2]: 0.0124
Bliss excess [3]: 0.0349
Bliss excess [4]: -0.0981
Bliss excess [5]: -0.0194
Bliss excess [6]: -0.021
Bliss excess [7]: -0.0349
Bliss excess [8]: -0.0439
Bliss excess [9]: 0.0552
Bliss excess [10]: 0.0251
Bliss excess [11]: -0.0059
Bliss excess [12]: -0.0764
Bliss excess [13]: 0.0172
Bliss excess [14]: 0.0767
Bliss excess [15]: 0.0056
Bliss excess [16]: -0.0288
Bliss excess [17]: -0.0367
Bliss excess [18]: 0.0162
Bliss excess [19]: 0.0288
Bliss excess [20]: 0.0048

CCc1c2c(nc3ccc(O)cc13)-c1cc3c(c(=O)n1C2)COC(=O)[C@]3(O)CC [SN-38] + CN(C)CCCOc1ccc(-c2ccc3ncc4c(c3c2)n(C2CCOCC2)c(=O)n4C)cn1 [AZD0156] (first compound max 0.3 µM, 7x7, partner max 1 µM)
Bliss excess [1]: 0.0551
Bliss excess [2]: 0.0537
Bliss excess [3]: 0.0158
Bliss excess [4]: 0.0407
Bliss excess [5]: 0.0206
Bliss excess [6]: -0.0101
Bliss excess [7]: -0.0763
Bliss excess [8]: -0.0179
Bliss excess [9]: 0.0183
Bliss excess [10]: -0.0579
Bliss excess [11]: 0.126
Bliss excess [12]: 0.0604
Bliss excess [13]: -0.0219
Bliss excess [14]: 0.0303
Bliss excess [15]: -0.0591
Bliss excess [16]: 0.0499
Bliss excess [17]: -0.0347
Bliss excess [18]: 0.0296
Bliss excess [19]: -0.0359
Bliss excess [20]: -0.0451
